# Experimental data: patent US8802661B2, “C-28 amides of modified C-3 betulinic acid derivatives as HIV maturation inhibitors” (priority 2010, dated 2014)
# Tested on: recombinant NL4-3 virus (Renilla luciferase in nef, Gag P373S)
# Experiment: HIV Cell Culture Assay (luciferase reporter virus in MT-2 cells)
# Format: cell-based
# Settings: NL43
# Description: MT-2 cells and 293T cells were obtained from the NIH AIDS Research and Reference Reagent Program. MT-2 cells were propagated in RPMI 1640 media supplemented with 10% heat inactivated fetal bovine serum, […]. The 293T cells were propagated in DMEM media supplemented with 10% heat inactivated fetal bovine serum (FBS), 100 units/ml penicillin G and 100 μg/ml streptomycin. The proviral DNA clone of NL4-3 was obtained from the NIH AIDS Research and Reference Reagent Program. A recombinant NL4-3 virus, in which a section of the nef gene from NL4-3 was replaced with the Renilla luciferase gene, was used as a reference virus. In addition, residue Gag P373 was converted to P373S. Briefly, the recombinant virus was prepared by transfection of the altered proviral clone of NL4-3. Transfections were performed in 293T cells using LipofectAMINE PLUS from Invitrogen (Carlsbad, Calif.), according to manufacturer's instruction. The virus was titered in MT-2 cells using luciferase enzyme activity as a marker. Luciferase was quantitated using the Dual Luciferase kit from Promega (Madison, Wis.), with modifications to the manufacturer's protocol. The diluted Passive Lysis solution was pre-mixed with the re-suspended Luciferase Assay Reagent and the re-suspended Stop & Glo Substrate (2:1:1 ratio). Fifty (50) μL of the mixture was added to each aspirated well on assay plates and luciferase activity was measured immediately on a Wallac TriLux (Perkin-Elmer). Antiviral activities of inhibitors toward the recombinant virus were quantified by measuring luciferase activity in cells infected for 4-5 days with NLRluc recombinants in the presence serial dilutions of the inhibitor. Table 1 is the key for the data in Table 2.
row,Compound,EC50 [nM]
1,"C=C(C)[C@@H]1CC[C@]2(C(=O)N(C)CCc3ccccn3)CC[C@]3(C)[C@H](CC[C@@H]4[C@@]5(C)CC=C(c6ccc(C(=O)O)cc6)C(C)(C)[C@@H]5CC[C@]43C)[C@@H]12 [Example 24, 4-((1R,3aS,5aR,5bR,7aR,11aS,11bR,13aR,13bR)-5a,5b,8,8,11a-pentamethyl-3a-(methyl(2-(pyridin-2-yl)ethyl)carbamoyl)-1-(prop-1-en-2-yl)-2,3,3a,4,5,5a,5b,6,7,7a,8,11,11a,11b,12,13,13a,13b-octadecahydro-1H-cyclopenta[a]chrysen-9-yl)benzoic acid]",48
2,"C=C(C)[C@@H]1CC[C@]2(C(=O)Nc3nc(C(=O)O)c(C)s3)CC[C@]3(C)[C@H](CC[C@@H]4[C@@]5(C)CC=C(c6ccc(C(=O)O)cc6)C(C)(C)[C@@H]5CC[C@]43C)[C@@H]12 [Example 47, 2-((1R,3aS,5aR,5bR,7aR,11aS,11bR,13aR,13bR)-9-(4-carboxyphenyl)-5a,5b,8,8,11a-pentamethyl-1-(prop-1-en-2-yl)-2,3,3a,4,5,5a,5b,6,7,7a,8,11,11a,11b,12,13,13a,13b-octadecahydro-1H-cyclopenta[a]chrysene-3a-carboxamido)-5-methylthiazole-4-carboxylic acid]",8.7
3,"C=C(C)[C@@H]1CC[C@]2(C(=O)N3CCCCC3)CC[C@]3(C)[C@H](CC[C@@H]4[C@@]5(C)CC=C(c6ccc(C(=O)O)cc6)C(C)(C)[C@@H]5CC[C@]43C)[C@@H]12 [Example 19, 4-((1R,3aS,5aR,5bR,7aR,11aS,11bR,13aR,13bR)-5a,5b,8,8,11a-pentamethyl-3a-(piperidine-1-carbonyl)-1-(prop-1-en-2-yl)-2,3,3a,4,5,5a,5b,6,7,7a,8,11,11a,11b,12,13,13a,13b-octadecahydro-1H-cyclopenta[a]chrysen-9-yl)benzoic acid]",370

# Same assay, conditions: NL43, read-out: EC50 Group
row,Compound,EC50 [nM]
1,"CC(C)[C@@H]1CC[C@]2(C(=O)NCCN(C)C)CC[C@]3(C)[C@H](CC[C@@H]4[C@@]5(C)CC[C@H](c6ccc(C(=O)O)cc6)C(C)(C)[C@@H]5CC[C@]43C)[C@@H]12 [Example 55, 4-((1S,3aS,5aR,5bR,7aS,9S,11aS,11bR,13aR,13bR)-3a-(2-(dimethylamino)ethylcarbamoyl)-1-isopropyl-5a,5b,8,8,11a-pentamethylicosahydro-1H-cyclopenta[a]chrysen-9-yl)benzoic acid]",< 100
2,"C=C(C)[C@@H]1CC[C@]2(C(=O)NCCN(C)C(C)=O)CC[C@]3(C)[C@H](CC[C@@H]4[C@@]5(C)CC=C(c6ccc(C(=O)O)cc6)C(C)(C)[C@@H]5CC[C@]43C)[C@@H]12 [Example 75, 4-((1R,3aS,5aR,5bR,7aR,11aS,11bR,13aR,13bR)-5a,5b,8,8,11a-pentamethyl-3a-(2-(N-methylacetamido)ethylcarbamoyl)-1-(prop-1-en-2-yl)-2,3,3a,4,5,5a,5b,6,7,7a,8,11,11a,11b,12,13,13a,13b-octadecahydro-1H-cyclopenta[a]chrysen-9-yl)benzoic acid]",< 100
3,"C=C(C)[C@@H]1CC[C@]2(C(=O)NCCN(CC)CC)CC[C@]3(C)[C@H](CC[C@@H]4[C@@]5(C)CC=C(c6ccc(C(=O)O)cc6)C(C)(C)[C@@H]5CC[C@]43C)[C@@H]12 [Example 70, 4-((1R,3aS,5aR,5bR,7aR,11aS,11bR,13aR,13bR)-3a-(2-(diethylamino)ethylcarbamoyl)-5a,5b,8,8,11a-pentamethyl-1-(prop-1-en-2-yl)-2,3,3a,4,5,5a,5b,6,7,7a,8,11,11a,11b,12,13,13a,13b-octadecahydro-1H-cyclopenta[a]chrysen-9-yl)benzoic acid]",< 100
4,"C=C(C)[C@@H]1CC[C@]2(C(=O)N3CCC(O)CC3)CC[C@]3(C)[C@H](CC[C@@H]4[C@@]5(C)CC=C(c6ccc(C(=O)O)cc6)C(C)(C)[C@@H]5CC[C@]43C)[C@@H]12 [Example 22, 4-((1R,3aS,5aR,5bR,7aR,11aS,11bR,13aR,13bR)-3a-(4-hydroxypiperidine-1-carbonyl)-5a,5b,8,8,11a-pentamethyl-1-(prop-1-en-2-yl)-2,3,3a,4,5,5a,5b,6,7,7a,8,11,11a,11b,12,13,13a,13b-octadecahydro-1H-cyclopenta[a]chrysen-9-yl)benzoic acid]",< 100
5,"C=C(C)[C@@H]1CC[C@]2(C(=O)NCCN3CCC(F)(F)CC3)CC[C@]3(C)[C@H](CC[C@@H]4[C@@]5(C)CC=C(c6ccc(C(=O)O)cc6)C(C)(C)[C@@H]5CC[C@]43C)[C@@H]12 [Example 118, 4-((1R,3aS,5aR,5bR,7aR,11aS,11bR,13aR,13bR)-3a-(2-(4,4-difluoropiperidin-1-yl)ethylcarbamoyl)-5a,5b,8,8,11a-pentamethyl-1-(prop-1-en-2-yl)-2,3,3a,4,5,5a,5b,6,7,7a,8,11,11a,11b,12,13,13a,13b-octadecahydro-1H-cyclopenta[a]chrysen-9-yl)benzoic acid]",< 100
6,"C=C(C)[C@@H]1CC[C@]2(C(=O)NCCO)CC[C@]3(C)[C@H](CC[C@@H]4[C@@]5(C)CC=C(c6ccc(C(=O)O)cc6)C(C)(C)[C@@H]5CC[C@]43C)[C@@H]12 [Example 17, 4-((1R,3aS,5aR,5bR,7aR,11aS,11bR,13aR,13bR)-3a-(2-hydroxyethylcarbamoyl)-5a,5b,8,8,11a-pentamethyl-1-(prop-1-en-2-yl)-2,3,3a,4,5,5a,5b,6,7,7a,8,11,11a,11b,12,13,13a,13b-octadecahydro-1H-cyclopenta[a]chrysen-9-yl)benzoic acid]",< 100
7,"C=C(C)[C@@H]1CC[C@]2(C(=O)NCc3nc4ccccc4[nH]3)CC[C@]3(C)[C@H](CC[C@@H]4[C@@]5(C)CC=C(c6ccc(C(=O)O)cc6)C(C)(C)[C@@H]5CC[C@]43C)[C@@H]12 [Example 40, 4-((1R,3aS,5aR,5bR,7aR,11aS,11bR,13aR,13bR)-3a-((1H-benzo[d]imidazol-2-yl)methylcarbamoyl)-5a,5b,8,8,11a-pentamethyl-1-(prop-1-en-2-yl)-2,3,3a,4,5,5a,5b,6,7,7a,8,11,11a,11b,12,13,13a,13b-octadecahydro-1H-cyclopenta[a]chrysen-9-yl)benzoic acid]",< 100
8,"C=C(C)[C@@H]1CC[C@]2(C(=O)NCC(C)(C)N)CC[C@]3(C)[C@H](CC[C@@H]4[C@@]5(C)CC=C(c6ccc(C(=O)O)cc6)C(C)(C)[C@@H]5CC[C@]43C)[C@@H]12 [Example 38, 4-((1R,3aS,5aR,5bR,7aR,11aS,11bR,13aR,13bR)-3a-(2-amino-2-methylpropylcarbamoyl)-5a,5b,8,8,11a-pentamethyl-1-(prop-1-en-2-yl)-2,3,3a,4,5,5a,5b,6,7,7a,8,11,11a,11b,12,13,13a,13b-octadecahydro-1H-cyclopenta[a]chrysen-9-yl)benzoic acid]",< 100
9,"C=C(C)[C@@H]1CC[C@]2(C(=O)NC)CC[C@]3(C)[C@H](CC[C@@H]4[C@@]5(C)CC=C(c6ccc(C(=O)O)cc6)C(C)(C)[C@@H]5CC[C@]43C)[C@@H]12 [Example 26, 4-((1R,3aS,5aR,5bR,7aR,11aS,11bR,13aR,13bR)-5a,5b,8,8,11a-pentamethyl-3a-(methylcarbamoyl)-1-(prop-1-en-2-yl)-2,3,3a,4,5,5a,5b,6,7,7a,8,11,11a,11b,12,13,13a,13b-octadecahydro-1H-cyclopenta[a]chrysen-9-yl)benzoic acid]",< 100
10,"C=C(C)[C@@H]1CC[C@]2(C(=O)NCCN3CCS(=O)(=O)CC3)CC[C@]3(C)[C@H](CC[C@@H]4[C@@]5(C)CC=C(c6ccc(C(=O)O)cc6)C(C)(C)[C@@H]5CC[C@]43C)[C@@H]12 [Example 106, 4-((1R,3aS,5aR,5bR,7aR,11aS,11bR,13aR,13bR)-3a-((2-(1,1-dioxido-4-thiomorpholinyl)ethyl)carbamoyl)-1-isopropenyl-5a,5b,8,8,11a-pentamethyl-2,3,3a,4,5,5a,5b,6,7,7a,8,11,11a,11b,12,13,13a,13b-octadecahydro-1H-cyclopenta[a]chrysen-9-yl)benzoic acid]",< 100
11,"C=C(C)[C@@H]1CC[C@]2(C(=O)NCCc3ccc(OC)cc3)CC[C@]3(C)[C@H](CC[C@@H]4[C@@]5(C)CC=C(c6ccc(C(=O)O)cc6)C(C)(C)[C@@H]5CC[C@]43C)[C@@H]12 [Example 4, 4-((1R,3aS,5aR,5bR,7aR,11aS,11bR,13aR,13bR)-3a-(4-methoxyphenethylcarbamoyl)-5a,5b,8,8,11a-pentamethyl-1-(prop-1-en-2-yl)-2,3,3a,4,5,5a,5b,6,7,7a,8,11,11a,11b,12,13,13a,13b-octadecahydro-1H-cyclopenta[a]chrysen-9-yl)benzoic acid]",< 100
12,"C=C(C)[C@@H]1CC[C@]2(C(=O)NCC(=O)O)CC[C@]3(C)[C@H](CC[C@@H]4[C@@]5(C)CC=C(c6ccc(C(=O)O)cc6)C(C)(C)[C@@H]5CC[C@]43C)[C@@H]12 [Example 62, 4-((1R,3aS,5aR,5bR,7aR,11aS,11bR,13aR,13bR)-3a-(carboxymethylcarbamoyl)-5a,5b,8,8,11a-pentamethyl-1-(prop-1-en-2-yl)-2,3,3a,4,5,5a,5b,6,7,7a,8,11,11a,11b,12,13,13a,13b-octadecahydro-1H-cyclopenta[a]chrysen-9-yl)benzoic acid]",> 100
